Experiment: Fura-2 Ca^2+ flux assay, control vesicles
Format: biochemical, S cerevisiae
Details: STIM 1 cytoplasmic fragments 2 μM
Procedure: It was next asked whether STIM-ORAI protein-protein interaction is sufficient to open the ORAI Ca^2+ channel. Vesicles obtained from S cerevisiae expressing ORAI were incubated under conditions where Fura-2 was the principal Ca^2+ buffer in the extravesicular solution in order to monitor Ca^2+ efflux (Meyer, T., et al., Biochemistry 29, 32-37 (1990)).
S cerevisiae strain NY17 featuring the temperature-sensitive sec6-4 mutation was used for protein expression and purification of secretory vesicles as described (Nakamoto, R. K., et al., J Biol Chem 266, 7940-7949 (1991); Coury, L. A., et al., Methods Enzymol 306, 169-186 (1999)). Cells were grown to midlog phase at 25° C. in uracil-deficient synthetic complete medium containing glucose, which was subsequently exchanged for galactose to induce transgene expression over a period of 8 hours. The temperature was then switched to 37° C. for 3 hours to force intracellular accumulation of secretory vesicles. […] Myc-tagged ORAI1 was detected in Western blots using the murine anti-Myc monoclonal antibody 9E10. […]
Fura-2 spectra were recorded at ambient temperature, 22-25° C., in 20 mM Tris pH 7.4, 100 mM KCl, containing 10 μM metal-free Fura-2. Excitation spectra were recorded by scanning from 300-450 nm while monitoring emission at 510 nm, using a 2-4 nm slitwidth for both excitation and emission. […]

Substance	Ca^2+ release from control vesicles (Fura-2)
STIM1^CT: cytoplasmic region of STIM1, mouse residues 233-685, His-tagged recombinant protein expressed in E coli	neither STIM 1 fragment was effective
STIM1 (233-498): truncated mouse STIM1 cytoplasmic fragment, residues 233-498, His-tagged recombinant protein	neither STIM 1 fragment was effective
